# From patent US8114843B2, “Photoreactive regulator of protein function and methods of use thereof” (The Regents of the University of California, priority 2005, dated 2012)
# Assays:
# Experiment in all cases: PAL photoswitching, whole-cell patch clamp in HEK cells
# Assay type in all cases: cell-based
# Kv4.2 = target: T1, Kv4.2 (Homo sapiens, UniProt Q9NZV8); details: n=6
# T1 construct: expressed in transfected cells; host or cells: HEK cells
# T1 sequence (Q9NZV8 1-630): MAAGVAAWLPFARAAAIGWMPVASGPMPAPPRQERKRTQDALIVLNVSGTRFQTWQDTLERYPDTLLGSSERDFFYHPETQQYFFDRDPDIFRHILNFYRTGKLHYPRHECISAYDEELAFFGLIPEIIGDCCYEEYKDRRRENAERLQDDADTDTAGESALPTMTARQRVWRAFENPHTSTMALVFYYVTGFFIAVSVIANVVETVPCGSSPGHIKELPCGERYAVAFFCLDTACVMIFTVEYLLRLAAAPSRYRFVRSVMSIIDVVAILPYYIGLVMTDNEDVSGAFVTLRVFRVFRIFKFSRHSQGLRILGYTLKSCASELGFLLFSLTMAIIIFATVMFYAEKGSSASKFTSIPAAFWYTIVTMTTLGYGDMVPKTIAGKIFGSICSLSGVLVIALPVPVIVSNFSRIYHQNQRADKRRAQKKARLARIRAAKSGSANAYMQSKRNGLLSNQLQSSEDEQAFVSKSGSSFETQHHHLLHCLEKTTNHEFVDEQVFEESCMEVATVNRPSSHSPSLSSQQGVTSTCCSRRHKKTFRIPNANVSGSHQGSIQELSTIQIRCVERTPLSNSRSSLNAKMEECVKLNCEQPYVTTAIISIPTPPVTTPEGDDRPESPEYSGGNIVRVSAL
# Procedure: (§1) Cell culture and transfection. HEK293 cells were grown in DMEM containing 5% fetal bovine serum, at 37° C., 7% CO2. For electrophysiology, cells were plated at 12×10^5 cells/cm^2 on poly-L-lysine coated coverslips and transfected using the calcium phosphate method. Recordings were performed 24-36 hours after transfection.
# (§2) PAL attachment. HEK293 and hippocampal cells were rinsed in extracellular solution containing in mM: 138 NaCl, 1.5 KCl, 1.2 MgCl2, 2.5 CaCl2, 5 HEPES, 10 glucose and incubated at 37° C. in the dark with 200-250 μM PAL for 15 minutes. For slices, AAQ was diluted to 200 μM in aCSF and treatment was performed in the dark at room temperature for 10 minutes.
# (§3) Electrophysiological recording. Recordings from HEK293 and hippocampal neurons were made in the whole-cell patch clamp configuration using a PC-501A amplifier (Warner Instruments). Pulse protocols and measurements were carried out with pCLAMP and a Digidata 1322 interface (Axon Instruments). For voltage-clamp experiment, cells were held at −70 mV. Data was recorded at 20 kHz and filtered at 2 kHz. Recording pipettes with 2.5-4 MΩ resistance were filled with intracellular solution containing in mM: 10 NaCl, 135 K-gluconate, 10 HEPES, 2 MgCl2, 2 MgATP, 1 EGTA, pH 7.4.
# (§4) Illumination was provided using a xenon lamp (Sutter Instruments) with narrow band pass filters (380 BP10 for UV and 500 BP5 for visible light respectively). Excitation filters were changed using a lambda 10-2 filter changer (Sutter Instruments) controlled via pCLAMP software.
# (§5) Percent photoswitching was defined as the difference between current in UV and visible light divided by current in UV. All data shown in bar graphs are averages±standard error of the mean.
# Kv1.4 = target: T2, Kv1.4 (Homo sapiens, UniProt P22459); details: n=6
# T2 construct: expressed in transfected cells; host or cells: HEK cells
# T2 sequence (P22459 whole entry): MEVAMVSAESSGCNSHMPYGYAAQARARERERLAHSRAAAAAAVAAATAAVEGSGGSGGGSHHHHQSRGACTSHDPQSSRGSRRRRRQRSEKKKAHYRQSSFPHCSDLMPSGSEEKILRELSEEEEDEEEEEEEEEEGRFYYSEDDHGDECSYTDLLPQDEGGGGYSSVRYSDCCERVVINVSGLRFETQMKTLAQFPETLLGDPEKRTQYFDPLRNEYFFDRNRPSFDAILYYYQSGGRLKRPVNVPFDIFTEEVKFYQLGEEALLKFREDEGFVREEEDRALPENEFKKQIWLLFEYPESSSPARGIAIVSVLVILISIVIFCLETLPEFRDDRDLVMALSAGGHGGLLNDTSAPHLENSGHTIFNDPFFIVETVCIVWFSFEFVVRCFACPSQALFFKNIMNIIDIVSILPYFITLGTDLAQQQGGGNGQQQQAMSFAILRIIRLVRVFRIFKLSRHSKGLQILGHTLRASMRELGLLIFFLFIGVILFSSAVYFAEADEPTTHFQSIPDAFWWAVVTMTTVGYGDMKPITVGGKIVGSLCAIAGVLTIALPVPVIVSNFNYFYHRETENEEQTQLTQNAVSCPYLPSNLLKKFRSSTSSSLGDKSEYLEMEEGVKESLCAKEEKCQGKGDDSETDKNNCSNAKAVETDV
# Procedure: as §1, §2, §3, §4, §5
# Kv2.1 = target: T3, Kv2.1 (Homo sapiens, UniProt Q14721)
# T3 construct: expressed in transfected cells; host or cells: HEK cells
# T3 sequence (Q14721 1-858): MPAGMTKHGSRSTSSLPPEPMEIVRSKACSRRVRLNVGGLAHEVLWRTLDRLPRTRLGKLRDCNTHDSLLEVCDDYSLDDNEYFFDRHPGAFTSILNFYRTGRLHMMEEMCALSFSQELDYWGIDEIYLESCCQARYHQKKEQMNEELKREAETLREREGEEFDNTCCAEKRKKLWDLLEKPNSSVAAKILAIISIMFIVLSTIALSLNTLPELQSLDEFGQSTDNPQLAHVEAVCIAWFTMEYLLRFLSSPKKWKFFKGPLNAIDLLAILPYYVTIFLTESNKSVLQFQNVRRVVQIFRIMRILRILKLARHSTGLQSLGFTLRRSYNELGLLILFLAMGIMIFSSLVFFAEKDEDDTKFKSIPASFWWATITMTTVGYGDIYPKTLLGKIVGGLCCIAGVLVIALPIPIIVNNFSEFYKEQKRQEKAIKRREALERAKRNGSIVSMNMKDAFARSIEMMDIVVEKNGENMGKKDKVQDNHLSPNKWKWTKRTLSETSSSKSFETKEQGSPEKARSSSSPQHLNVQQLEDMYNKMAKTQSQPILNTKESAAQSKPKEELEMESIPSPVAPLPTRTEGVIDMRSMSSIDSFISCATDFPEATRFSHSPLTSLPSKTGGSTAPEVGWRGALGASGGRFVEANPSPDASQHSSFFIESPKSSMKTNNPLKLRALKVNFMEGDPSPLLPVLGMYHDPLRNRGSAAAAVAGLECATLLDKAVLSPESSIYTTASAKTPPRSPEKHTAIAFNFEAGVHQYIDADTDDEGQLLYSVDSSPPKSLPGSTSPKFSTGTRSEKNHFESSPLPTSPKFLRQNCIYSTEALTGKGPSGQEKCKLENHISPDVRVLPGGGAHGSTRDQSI
# Procedure: as §1, §2, §3, §4, §5
# Kv1.2 = target: T4, Kv1.2 (Homo sapiens, UniProt P16389)
# T4 construct: expressed in transfected cells; host or cells: HEK cells
# T4 sequence (P16389 whole entry): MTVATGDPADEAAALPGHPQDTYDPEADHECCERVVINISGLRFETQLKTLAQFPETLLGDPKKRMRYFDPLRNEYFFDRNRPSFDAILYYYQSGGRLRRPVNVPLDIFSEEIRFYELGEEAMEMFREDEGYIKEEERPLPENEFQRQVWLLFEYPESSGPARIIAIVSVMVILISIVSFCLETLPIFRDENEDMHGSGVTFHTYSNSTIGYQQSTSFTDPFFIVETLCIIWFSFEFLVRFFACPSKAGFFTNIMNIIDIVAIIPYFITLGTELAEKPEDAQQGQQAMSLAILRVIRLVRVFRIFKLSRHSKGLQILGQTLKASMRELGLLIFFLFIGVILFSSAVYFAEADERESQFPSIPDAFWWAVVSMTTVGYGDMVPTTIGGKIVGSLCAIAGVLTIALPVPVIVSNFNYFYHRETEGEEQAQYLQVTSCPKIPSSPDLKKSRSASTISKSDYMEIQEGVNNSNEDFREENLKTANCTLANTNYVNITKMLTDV
# Procedure: as §1, §2, §3, §4, §5
# BKα channels = target: T5, BKα channels (Homo sapiens, UniProt Q12791); details: n=6
# T5 construct: expressed in transfected cells; host or cells: HEK cells
# T5 sequence (Q12791 whole entry): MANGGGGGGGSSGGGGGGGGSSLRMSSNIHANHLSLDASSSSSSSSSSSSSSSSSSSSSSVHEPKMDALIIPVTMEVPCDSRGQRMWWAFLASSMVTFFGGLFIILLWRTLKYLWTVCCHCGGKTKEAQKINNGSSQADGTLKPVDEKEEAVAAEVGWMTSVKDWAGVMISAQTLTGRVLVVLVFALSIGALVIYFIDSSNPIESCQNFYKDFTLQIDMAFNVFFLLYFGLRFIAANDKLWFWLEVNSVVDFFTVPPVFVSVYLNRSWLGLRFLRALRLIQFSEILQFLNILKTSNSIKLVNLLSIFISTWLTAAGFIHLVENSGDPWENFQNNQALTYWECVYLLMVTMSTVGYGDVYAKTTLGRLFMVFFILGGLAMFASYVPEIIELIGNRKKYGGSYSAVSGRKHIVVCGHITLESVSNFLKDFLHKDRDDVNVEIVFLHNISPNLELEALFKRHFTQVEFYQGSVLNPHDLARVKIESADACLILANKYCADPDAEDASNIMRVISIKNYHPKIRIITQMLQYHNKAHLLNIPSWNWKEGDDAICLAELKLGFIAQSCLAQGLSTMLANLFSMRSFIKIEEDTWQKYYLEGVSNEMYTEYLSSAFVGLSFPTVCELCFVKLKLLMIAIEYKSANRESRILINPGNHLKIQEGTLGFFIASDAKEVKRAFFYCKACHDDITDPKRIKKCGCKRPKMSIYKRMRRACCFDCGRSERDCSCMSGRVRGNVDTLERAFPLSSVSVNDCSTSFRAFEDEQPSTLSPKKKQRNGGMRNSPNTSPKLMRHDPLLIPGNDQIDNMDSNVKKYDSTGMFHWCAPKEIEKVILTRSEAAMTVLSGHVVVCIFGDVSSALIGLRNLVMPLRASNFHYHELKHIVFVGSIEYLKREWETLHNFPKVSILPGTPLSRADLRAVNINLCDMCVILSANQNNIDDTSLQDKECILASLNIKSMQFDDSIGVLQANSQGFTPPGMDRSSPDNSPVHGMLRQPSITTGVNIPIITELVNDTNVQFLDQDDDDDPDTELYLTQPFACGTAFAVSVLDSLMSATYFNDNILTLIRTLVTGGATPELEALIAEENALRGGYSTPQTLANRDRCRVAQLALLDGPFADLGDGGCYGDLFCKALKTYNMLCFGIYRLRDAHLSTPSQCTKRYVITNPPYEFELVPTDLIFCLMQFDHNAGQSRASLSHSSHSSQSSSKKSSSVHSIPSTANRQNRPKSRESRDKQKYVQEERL
# Procedure: as §1, §2, §3, §4, §5
# Kv3.1 = target: T6, Kv3.1 (Homo sapiens, UniProt P48547)
# T6 construct: expressed in transfected cells; host or cells: HEK cells
# T6 sequence (P48547 1-511): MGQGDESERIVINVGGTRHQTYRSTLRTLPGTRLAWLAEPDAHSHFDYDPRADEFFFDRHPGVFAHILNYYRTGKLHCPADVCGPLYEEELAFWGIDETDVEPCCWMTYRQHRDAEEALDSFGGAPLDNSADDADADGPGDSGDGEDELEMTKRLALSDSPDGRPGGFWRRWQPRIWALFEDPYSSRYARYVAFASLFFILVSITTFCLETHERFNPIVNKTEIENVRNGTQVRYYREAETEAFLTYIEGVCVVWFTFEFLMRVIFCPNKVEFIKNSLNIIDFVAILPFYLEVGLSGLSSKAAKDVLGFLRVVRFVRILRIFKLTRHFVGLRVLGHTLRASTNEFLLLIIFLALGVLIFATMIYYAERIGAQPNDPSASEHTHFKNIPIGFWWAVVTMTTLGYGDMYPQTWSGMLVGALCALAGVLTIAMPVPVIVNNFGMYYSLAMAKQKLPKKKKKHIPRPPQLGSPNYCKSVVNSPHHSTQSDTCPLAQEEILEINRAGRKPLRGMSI
# Procedure: as §1, §2, §3, §4, §5
smiles,measurement,setting,value
C=CC(=O)Nc1ccc(/N=N/c2ccc(NC(=O)C[N+](CC)(CC)CC)cc2)cc1 [AAQ],current turned on and off by light,Kv4.2,~80%
same,current turned on and off by light,Kv1.4,~80%
same,light-sensitivity imparted on channel,Kv2.1,imparted light-sensitivity
same,light-sensitivity imparted on channel,Kv1.2,imparted light-sensitivity
same,current regulated by light,BKα channels,~45%
same,light-sensitivity imparted on channel,Kv3.1,imparted light-sensitivity
